Source: ChEMBL document CHEMBL5724806, “Unraveling interindividual differences and functional consequences of gut microbial metabolism of immunosuppressants” (2024)

Experiments:
Format in all cases: ADME
[1] = The drug is tested on the gut metagenome community of A-03 with ENA study accession number: PRJEB31790 for biotransformation under anaerobic condition. The drug concentrations were measured over 7 timepoints collected between 0 and 12 hours of incubation by liquid-chromatography-coupled mass spectrometry (LC–MS); parameters: dose 5 uM, timepoint 0, 0.75, 1.5, 3, 6, 9, 12 hours; details: 5 µM
[2] = The drug is tested on Lactobacillus paracasei strain: ATCC27092 for biotransformation under anaerobic condition. The drug concentrations were measured over 6 timepoints collected between 0 and 12 hours of incubation by liquid-chromatography-coupled mass spectrometry (LC–MS); parameters: dose 5 uM, timepoint 0, 1.5, 3, 6, 9, 12 hours; details: lacticaseibacillus paracasei, 5 µM
[3] = The drug is tested on Blautia hansenii strain: DSM20583 for biotransformation under anaerobic condition. The drug concentrations were measured over 6 timepoints collected between 0 and 12 hours of incubation by liquid-chromatography-coupled mass spectrometry (LC–MS); parameters: dose 5 uM, timepoint 0, 1.5, 3, 6, 9, 12 hours; details: 5 µM
[4] = The drug is tested on Clostridium bolteae strain: DSM15670 for biotransformation under anaerobic condition. The drug concentrations were measured over 6 timepoints collected between 0 and 12 hours of incubation by liquid-chromatography-coupled mass spectrometry (LC–MS); parameters: dose 5 uM, timepoint 0, 1.5, 3, 6, 9, 12 hours; details: enterocloster bolteae, 5 µM
[5] = The drug is tested on the gut metagenome community of A-01 with ENA study accession number: PRJEB31790 for biotransformation under anaerobic condition. The drug concentrations were measured over 7 timepoints collected between 0 and 12 hours of incubation by liquid-chromatography-coupled mass spectrometry (LC–MS); parameters: dose 5 uM, timepoint 0, 0.75, 1.5, 3, 6, 9, 12 hours; details: 5 µM
[6] = The drug is tested on Streptococcus mitis strain: DSM12643 for biotransformation under anaerobic condition. The drug concentrations were measured over 6 timepoints collected between 0 and 12 hours of incubation by liquid-chromatography-coupled mass spectrometry (LC–MS); parameters: dose 5 uM, timepoint 0, 1.5, 3, 6, 9, 12 hours; details: 5 µM
[7] = The drug is tested on Streptococcus mitis strain: DSM12643 for biotransformation under microaerobic condition. The drug concentrations were measured over 6 timepoints collected between 0 and 12 hours of incubation by liquid-chromatography-coupled mass spectrometry (LC–MS); parameters: dose 5 uM, timepoint 0, 1.5, 3, 6, 9, 12 hours; details: 5 µM
[8] = The drug is tested on Faecalibacterium prausnitzii strain: DSM17677 for biotransformation under anaerobic condition. The drug concentrations were measured over 6 timepoints collected between 0 and 12 hours of incubation by liquid-chromatography-coupled mass spectrometry (LC–MS); parameters: dose 5 uM, timepoint 0, 1.5, 3, 6, 9, 12 hours; details: faecalibacterium duncaniae, 5 µM
[9] = The drug is tested on Actinomyces graevenitzii strain: DSM15540 for biotransformation under microaerobic condition. The drug concentrations were measured over 6 timepoints collected between 0 and 12 hours of incubation by liquid-chromatography-coupled mass spectrometry (LC–MS); parameters: dose 5 uM, timepoint 0, 1.5, 3, 6, 9, 12 hours; details: 5 µM
[10] = The drug is tested on Collinsella aerofaciens strain: DSM3979 for biotransformation under anaerobic condition. The drug concentrations were measured over 6 timepoints collected between 0 and 12 hours of incubation by liquid-chromatography-coupled mass spectrometry (LC–MS); parameters: dose 5 uM, timepoint 0, 1.5, 3, 6, 9, 12 hours; details: 5 µM
[11] = The drug is tested on the gut metagenome community of T-01 with ENA study accession number: PRJEB31790 for biotransformation under anaerobic condition. The drug concentrations were measured over 7 timepoints collected between 0 and 12 hours of incubation by liquid-chromatography-coupled mass spectrometry (LC–MS); parameters: dose 5 uM, timepoint 0, 0.75, 1.5, 3, 6, 9, 12 hours; details: 5 µM
[12] = The drug is tested on Clostridium scindens strain: DSM5676 for biotransformation under anaerobic condition. The drug concentrations were measured over 6 timepoints collected between 0 and 12 hours of incubation by liquid-chromatography-coupled mass spectrometry (LC–MS); parameters: dose 5 uM, timepoint 0, 1.5, 3, 6, 9, 12 hours; details: 5 µM
[13] = The drug is tested on Lactobacillus gasseri strain: DSM20243 for biotransformation under microaerobic condition. The drug concentrations were measured over 6 timepoints collected between 0 and 12 hours of incubation by liquid-chromatography-coupled mass spectrometry (LC–MS); parameters: dose 5 uM, timepoint 0, 1.5, 3, 6, 9, 12 hours; details: 5 µM
[14] = The drug is tested on Lactobacillus gasseri strain: DSM20243 for biotransformation under anaerobic condition. The drug concentrations were measured over 6 timepoints collected between 0 and 12 hours of incubation by liquid-chromatography-coupled mass spectrometry (LC–MS); parameters: dose 5 uM, timepoint 0, 1.5, 3, 6, 9, 12 hours; details: 5 µM
[15] = The drug is tested on Streptococcus anginosus strain: DSM20563 for biotransformation under anaerobic condition. The drug concentrations were measured over 6 timepoints collected between 0 and 12 hours of incubation by liquid-chromatography-coupled mass spectrometry (LC–MS); parameters: dose 5 uM, timepoint 0, 1.5, 3, 6, 9, 12 hours; details: 5 µM
[16] = The drug is tested on Ruminococcus gnavus strain: ATCC29149 for biotransformation under anaerobic condition. The drug concentrations were measured over 6 timepoints collected between 0 and 12 hours of incubation by liquid-chromatography-coupled mass spectrometry (LC–MS); parameters: dose 5 uM, timepoint 0, 1.5, 3, 6, 9, 12 hours; details: mediterraneibacter gnavus, 5 µM
[17] = The drug is tested on the gut metagenome community of A-09 with ENA study accession number: PRJEB31790 for biotransformation under anaerobic condition. The drug concentrations were measured over 7 timepoints collected between 0 and 12 hours of incubation by liquid-chromatography-coupled mass spectrometry (LC–MS); parameters: dose 5 uM, timepoint 0, 0.75, 1.5, 3, 6, 9, 12 hours; details: 5 µM
[18] = The drug is tested on Parabacteroides distasonis strain: DSM20701 for biotransformation under anaerobic condition. The drug concentrations were measured over 6 timepoints collected between 0 and 12 hours of incubation by liquid-chromatography-coupled mass spectrometry (LC–MS); parameters: dose 5 uM, timepoint 0, 1.5, 3, 6, 9, 12 hours; details: 5 µM
[19] = The drug is tested on the gut metagenome community of P-03 with ENA study accession number: PRJEB31790 for biotransformation under microaerobic condition. The drug concentrations were measured over 7 timepoints collected between 0 and 12 hours of incubation by liquid-chromatography-coupled mass spectrometry (LC–MS); parameters: dose 5 uM, timepoint 0, 0.75, 1.5, 3, 6, 9, 12 hours; details: 5 µM
[20] = The drug is tested on the gut metagenome community of P-01 with ENA study accession number: PRJEB31790 for biotransformation under microaerobic condition. The drug concentrations were measured over 7 timepoints collected between 0 and 12 hours of incubation by liquid-chromatography-coupled mass spectrometry (LC–MS); parameters: dose 5 uM, timepoint 0, 0.75, 1.5, 3, 6, 9, 12 hours; details: 5 µM
[21] = The drug is tested on the gut metagenome community of A-10 with ENA study accession number: PRJEB31790 for biotransformation under anaerobic condition. The drug concentrations were measured over 7 timepoints collected between 0 and 12 hours of incubation by liquid-chromatography-coupled mass spectrometry (LC–MS); parameters: dose 5 uM, timepoint 0, 0.75, 1.5, 3, 6, 9, 12 hours; details: 5 µM
[22] = The drug is tested on Lactobacillus fermentum strain: DSM20052 for biotransformation under microaerobic condition. The drug concentrations were measured over 6 timepoints collected between 0 and 12 hours of incubation by liquid-chromatography-coupled mass spectrometry (LC–MS); parameters: dose 5 uM, timepoint 0, 1.5, 3, 6, 9, 12 hours; details: limosilactobacillus fermentum, 5 µM
[23] = The drug is tested on Actinomyces naeslundi strain: DSM43013 for biotransformation under microaerobic condition. The drug concentrations were measured over 6 timepoints collected between 0 and 12 hours of incubation by liquid-chromatography-coupled mass spectrometry (LC–MS); parameters: dose 5 uM, timepoint 0, 1.5, 3, 6, 9, 12 hours; details: actinomyces naeslundii, 5 µM
[24] = The drug is tested on Streptococcus sanguinis strain: DSM20567 for biotransformation under anaerobic condition. The drug concentrations were measured over 6 timepoints collected between 0 and 12 hours of incubation by liquid-chromatography-coupled mass spectrometry (LC–MS); parameters: dose 5 uM, timepoint 0, 1.5, 3, 6, 9, 12 hours; details: 5 µM
[25] = The drug is tested on Bifidobacterium adolescentis strain: DSM20083 for biotransformation under anaerobic condition. The drug concentrations were measured over 6 timepoints collected between 0 and 12 hours of incubation by liquid-chromatography-coupled mass spectrometry (LC–MS); parameters: dose 5 uM, timepoint 0, 1.5, 3, 6, 9, 12 hours; details: 5 µM
[26] = The drug is tested on Gemella morbillorum strain: DSM20572 for biotransformation under microaerobic condition. The drug concentrations were measured over 6 timepoints collected between 0 and 12 hours of incubation by liquid-chromatography-coupled mass spectrometry (LC–MS); parameters: dose 5 uM, timepoint 0, 1.5, 3, 6, 9, 12 hours; details: 5 µM

| Compound | Bacterial Biotransformation [1] | Bacterial Biotransformation [2] | Bacterial Biotransformation [3] | Bacterial Biotransformation [4] | Bacterial Biotransformation [5] | Bacterial Biotransformation [6] | Bacterial Biotransformation [7] | Bacterial Biotransformation [8] | Bacterial Biotransformation [9] | Bacterial Biotransformation [10] | Bacterial Biotransformation [11] | Bacterial Biotransformation [12] | Bacterial Biotransformation [13] | Bacterial Biotransformation [14] | Bacterial Biotransformation [15] | Bacterial Biotransformation [16] | Bacterial Biotransformation [17] | Bacterial Biotransformation [18] | Bacterial Biotransformation [19] | Bacterial Biotransformation [20] | also measured |
| --- | --- | --- | --- | --- | --- | --- | --- | --- | --- | --- | --- | --- | --- | --- | --- | --- | --- | --- | --- | --- | --- |
| C[C@]12CCC(=O)C=C1CC[C@@H]1[C@@H]2C(=O)C[C@@]2(C)[C@H]1CC[C@]2(O)C(=O)CO [CORTISONE] | Compound metabolized | Compound NOT metabolized | Compound NOT metabolized | Compound NOT metabolized | Compound metabolized | Compound NOT metabolized | Compound NOT metabolized | Compound NOT metabolized | Compound NOT metabolized | Compound NOT metabolized | Compound metabolized | Compound metabolized | Compound NOT metabolized | Compound NOT metabolized | Compound NOT metabolized | Compound metabolized | Compound metabolized | Compound NOT metabolized | Compound metabolized | Compound metabolized | Bacterial Biotransformation [21]: Compound metabolized; Bacterial Biotransformation [22]: Compound NOT metabolized; Bacterial Biotransformation [23]: Compound NOT metabolized; Bacterial Biotransformation [24]: Compound NOT metabolized; Bacterial Biotransformation [25]: Compound NOT metabolized; Bacterial Biotransformation [26]: Compound NOT metabolized |
| C[C@@H]1C[C@H]2[C@@H]3CCC4=CC(=O)C=C[C@]4(C)[C@@]3(F)[C@@H](O)C[C@]2(C)[C@@]1(O)C(=O)CO [DEXAMETHASONE] | Compound metabolized | Compound NOT metabolized | Compound NOT metabolized | Compound NOT metabolized | Compound NOT metabolized | Compound NOT metabolized | Compound NOT metabolized | Compound NOT metabolized | Compound NOT metabolized | Compound NOT metabolized | Compound NOT metabolized | Compound metabolized | Compound NOT metabolized | Compound NOT metabolized | Compound NOT metabolized | Compound NOT metabolized | Compound metabolized | Compound NOT metabolized | Compound NOT metabolized | Compound NOT metabolized | Bacterial Biotransformation [21]: Compound NOT metabolized; Bacterial Biotransformation [22]: Compound NOT metabolized; Bacterial Biotransformation [23]: Compound NOT metabolized; Bacterial Biotransformation [24]: Compound NOT metabolized; Bacterial Biotransformation [25]: Compound NOT metabolized; Bacterial Biotransformation [26]: Compound NOT metabolized |
| COc1ccc([C@@H]2Sc3ccccc3N(CCN(C)C)C(=O)[C@@H]2OC(C)=O)cc1 [DILTIAZEM] | Compound metabolized | Compound NOT metabolized | Compound NOT metabolized | Compound NOT metabolized | Compound metabolized | Compound NOT metabolized | Compound NOT metabolized | Compound NOT metabolized | Compound NOT metabolized | Compound NOT metabolized | Compound NOT metabolized | Compound NOT metabolized | Compound metabolized | Compound NOT metabolized | Compound NOT metabolized | Compound NOT metabolized | Compound metabolized | Compound metabolized | Compound metabolized | Compound metabolized | Bacterial Biotransformation [21]: Compound NOT metabolized; Bacterial Biotransformation [22]: Compound NOT metabolized; Bacterial Biotransformation [23]: Compound NOT metabolized; Bacterial Biotransformation [24]: Compound NOT metabolized; Bacterial Biotransformation [25]: Compound NOT metabolized; Bacterial Biotransformation [26]: Compound metabolized |
